We go through 6 compounds from patent publication US7968534B2, “Sulfonamide derivatives, preparation thereof and use thereof as antagonists of orexin 2 receptors” (Sanofi-Aventis, priority 2006, dated 2011).

SMILES strings stand for the structures. Structures can show the parent of a compound that is named as a salt. Where two headings read alike, the source gives them in different places.

One assay has as its target T1, human orexin 2 receptors (Homo sapiens, UniProt O43614).
T1 construct: expressed in transfected cells; host or cells: CHO cells (membranes)
T1 sequence (O43614 1-444): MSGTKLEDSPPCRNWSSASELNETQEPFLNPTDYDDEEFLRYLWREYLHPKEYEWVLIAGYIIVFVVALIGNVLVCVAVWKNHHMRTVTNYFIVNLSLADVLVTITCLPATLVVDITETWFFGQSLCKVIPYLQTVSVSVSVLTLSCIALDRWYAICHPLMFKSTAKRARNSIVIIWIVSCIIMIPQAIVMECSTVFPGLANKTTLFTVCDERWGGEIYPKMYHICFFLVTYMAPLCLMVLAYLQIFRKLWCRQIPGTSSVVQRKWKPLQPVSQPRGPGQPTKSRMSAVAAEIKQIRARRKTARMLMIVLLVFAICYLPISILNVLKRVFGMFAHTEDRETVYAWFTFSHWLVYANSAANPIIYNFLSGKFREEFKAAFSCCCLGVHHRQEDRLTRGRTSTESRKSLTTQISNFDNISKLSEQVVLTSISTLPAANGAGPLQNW
The assay is described as follows: in vitro binding test: displacement of radioiodinated orexin A, membranes of CHO cells. As to conditions: read-out: IC50 OX 2. As to the method: (§1) They were in particular tested for their effects. […] This method consists in studying the displacement of radioiodinated orexin A attached to the human orexin 2 receptors expressed in CHO cells. The test is performed on membranes in a 50 mM Hepes incubation buffer containing 1 mM MgCl2, 25 mM CaCl2, 0.025% NaN3, 1% bovine serum albumin (BSA) and 100 pM of ligand for 30 minutes at 25° C. The reaction is stopped by filtration and washing on a Whatman GF/C filter. The nonspecific binding is measured in the presence of 10^−6M human orexin B. The IC50 values (concentration inhibiting 50% of the binding of radioiodinated orexin A to its receptors) are low, less than 300 nM, in particular less than 100 nM and more particularly less than 30 nM.

For a further assay, the target named is T2, human orexin 1 receptors (Homo sapiens, UniProt O43613).
T2 construct: expressed in transfected cells; host or cells: CHO cells (membrane preparation)
T2 sequence (O43613 1-425): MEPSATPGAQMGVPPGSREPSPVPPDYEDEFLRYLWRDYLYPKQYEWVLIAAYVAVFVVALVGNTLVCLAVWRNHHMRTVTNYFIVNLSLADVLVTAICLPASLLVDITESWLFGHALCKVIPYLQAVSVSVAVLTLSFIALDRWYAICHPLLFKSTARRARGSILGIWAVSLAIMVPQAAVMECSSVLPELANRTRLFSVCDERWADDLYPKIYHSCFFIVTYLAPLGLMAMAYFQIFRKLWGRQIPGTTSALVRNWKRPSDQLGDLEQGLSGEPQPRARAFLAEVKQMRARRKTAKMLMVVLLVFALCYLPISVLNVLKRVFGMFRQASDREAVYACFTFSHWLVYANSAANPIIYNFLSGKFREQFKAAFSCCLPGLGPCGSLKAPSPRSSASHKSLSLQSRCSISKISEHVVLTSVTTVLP
Kind of assay: in vitro binding test, same technique, radioiodinated orexin A, membrane preparation of CHO cells. The note with it: Table 2, read-out: IC50 OX 1. As to the method:
as §1
The affinity of the compounds according to the invention for the orexin 1 receptors was also studied in an in vitro binding test according to the same technique using radioiodinated orexin A as ligand in a membrane preparation of CHO cells expressing the human orexin 1 receptors. The compounds according to the invention have little or no affinity for the orexin 1 receptors.

[1] abbreviates: Table 2, in vitro binding test, 100 pM radioiodinated orexin A, 30 minutes at 25° C.

One may read the IC50 as the point on the concentration scale where inhibition reaches its midpoint. As to `COc1ccc(S(=O)(=O)N(c2c(Cc3c(F)cccc3F)cccc2OC)[C@H]2CCNC2)cc1OC` (atropisomer, axis not shown) [Compound 6, N-[2-(2,6-difluorobenzyl)-6-methoxyphenyl]-3,4-dimethoxy-N-[(3S)-pyrrolidin-3-yl]benzenesulfonamide hydrochloride], at human orexin 2 receptors (Table 1, assay not given), the IC50 stood at 9.1 nM.

Turning to `COc1ccc(S(=O)(=O)N(c2c(Cc3c(F)cccc3F)cc(Cl)cc2OC)[C@H]2CCNC2)cc1OC` [Compound 18, N-[2-(2,6-difluorobenzyl)-4-chloro-6-methoxyphenyl]-3,4-dimethoxy-N-[(3S)-pyrrolidin-3-yl]benzenesulfonamide hydrochloride], on human orexin 2 receptors (Table 1, assay not given), the IC50 amounted to 12 nM.

As to `COc1ccc(S(=O)(=O)N(c2c(Cc3c(F)cccc3F)cccc2OC)[C@H]2CCC[C@@H]2N)cc1OC` [Compound 14, N-[(1S,2S)-2-aminocyclopentyl]-N-[2-(2,6-difluorobenzyl)-6-methoxyphenyl]-3,4-dimethoxy-benzenesulfonamide hydrochloride], the IC50 on human orexin 2 receptors (Table 1, assay not given) came out at 10 nM.

Consider `COc1ccc(S(=O)(=O)N(c2ccc(Cl)cc2Cc2c(F)cccc2F)[C@H]2CCNC2)cc1OC` [Compound 1, N-[4-chloro-2-(2,6-difluorobenzyl)phenyl]-3,4-dimethoxy-N-[(3S)-pyrrolidin-3-yl]benzenesulfonamide hydrochloride], for which the IC50 at human orexin 2 receptors (setting [1]) was 16.4 nM; at human orexin 1 receptors it was 1380 nM.

On to `COc1ccc(S(=O)(=O)N(c2c(Cc3ccccc3Cl)cccc2OC)[C@H]2CCNC2)cc1OC` [Compound 11, N-[2-(2-chlorobenzyl)-6-methoxyphenyl]-3,4-dimethoxy-N-[(3S)-pyrrolidin-3-yl]benzenesulfonamide hydrochloride], for which, at human orexin 2 receptors (Table 1, assay not given), the IC50 was determined as 7.2 nM.

In the case of `COc1ccc(S(=O)(=O)N(c2c(Cc3c(F)cccc3F)cccc2OC)[C@H]2CCNC2)cc1OC` (atropisomer, axis not shown) [Compound 7, N-[2-(2,6-difluorobenzyl)-6-methoxyphenyl]-3,4-dimethoxy-N-[(3S)-pyrrolidin-3-yl]benzenesulfonamide hydrochloride], the IC50 was 9 nM at human orexin 2 receptors (setting [1]) and 103 nM on human orexin 1 receptors.
